Laboratory results: patent publication US20040086901A1, “Database for analyzing gene function and method of analyzing gene function by dspa” (priority 2000, published 2004)

Assays:
Assay type in all cases: cell-based, mouse
[1] = system: NIH3T3 cells overexpressing m-calpain; assay: MTT cell viability, m-calpain overexpressing cells vs parental line; settings: m-calpain high-expressing cells / parental cell line, 3 to 4 days
Description: (§1) With regard to the function-known genes, the genes shown in the left column of Table 2 were used. With regard to the drugs, those shown in Table 1 were dissolved in DMSO to an extent of 100-fold of the maximum concentration for the search of the drugs and used. With regard to the cells, incubated NIH3T3 or ras-NIH3T3 cells were used.
(§2) Full-length cDNA of each function-known genes was incorporated into an expression vector (pRc-CMV, etc.) and transfected into NIH3T3 cells by a common method. Transformed cells were isolated using the resistance to G-418 as an index and the expression of the transfected gene in each cell was investigated by Western blotting method to select a highly expressing line.
(§3) Cell viabilities were measured according to the following procedures.
(§4) 1) From the 2nd to the 11th rows of a 96-well plate were filled with DMEM (50 μl). The 12th row was filled with 100 μl of DMEM.
(§5) 2) The 1st row was filled with 98 μl of DMEM.
(§6) 3) Drugs (2 μl each) were added into the 1st row.
(§7) 4) Continuous double-dilution was conducted from the 1st to the 9th rows. Fifty μl were taken out from the 9th row and discarded. The plate was preserved in a CO2 incubator.
(§8) 5) Cells (each high-expressing cells and the parental cell line) were detached from the medium using a trypsin solution, suspended in 10% CS-DMEM and transferred to a test tube and cell numbers (cell/ml) were counted.
(§9) 6) The cells were diluted to a concentration of 1×10^5 cells/ml, and 50 μl of the cell suspension were added to the 1st to the 11th rows of the plate followed by gently stirring.
(§10) 7) The plate was transferred to the CO2 incubator and incubated for 3 to 4 days.
(§11) 8) MTT (5 mg/ml in PBS) (10 μl) was added to the 1st to the 12th rows of the plate and incubated in the CO2 incubator at 37° C. for 4 hours.
(§12) 9) A reaction stop solution (0.04N HCl in isopropanol) (150 μl) was added followed by mixing well and being allowed to stand at room temperature for about 2 hours.
(§13) 10) Coloration of formazan which was a metabolite of the MTT dye was measured using a microplate reader. The measurement wavelength was 574 nm and the reference wavelength was 655 nm. The 10th and the 11th rows of the plate were 100% controls and the 12th row was a 0% control.
(§14) As an index for the sensitivity of highly gene-expressing cells and the parental cell line to various drugs, each of the IC40 values thereof was specified and ratios of the IC40 values were calculated. […] After that, logarithmic values of ratios of IC40 values were calculated from each gene.

[2] = system: NIH3T3 cells overexpressing N-ras; assay: MTT cell viability, N-ras overexpressing cells vs parental line; settings: N-ras high-expressing cells / parental cell line, 3 to 4 days
Description: as §1, §2, §3, §4, §5, §6, §7, §8, §9, §10, §11, §12, §13
(§15) As an index for the sensitivity of highly gene-expressing cells and the parental cell line to various drugs, each of the IC40 values thereof was specified and ratios of the IC40 values were calculated. FIG. 2 and FIG. 3 are the examples where ratios of IC40 values were calculated from a curve showing the dependency on the concentration of the chemical versus the viability. After that, logarithmic values of ratios of IC40 values were calculated from each gene.

[3] = system: NIH3T3 cells overexpressing calpastatin; assay: MTT cell viability, calpastatin overexpressing cells vs parental line; settings: calpastatin high-expressing cells / parental cell line, 3 to 4 days
Description: as §1, §2, §3, §4, §5, §6, §7, §8, §9, §10, §11, §12, §13, §15

[4] = system: NIH3T3 cells overexpressing STAT1; assay: MTT cell viability, STAT1 overexpressing cells vs parental line; settings: STAT1 high-expressing cells / parental cell line, 3 to 4 days
Description: as §1, §2, §3, §4, §5, §6, §7, §8, §9, §10, §11, §12, §13, §14

[5] = system: NIH3T3 cells overexpressing v-src; assay: MTT cell viability, v-src overexpressing cells vs parental line; settings: v-src high-expressing cells / parental cell line, 3 to 4 days
Description: as §1, §2, §3, §4, §5, §6, §7, §8, §9, §10, §11, §12, §13, §15

[6] = system: NIH3T3 cells overexpressing RhoA; assay: MTT cell viability, RhoA overexpressing cells vs parental line; settings: RhoA high-expressing cells / parental cell line, 3 to 4 days
Description: as §1, §2, §3, §4, §5, §6, §7, §8, §9, §10, §11, §12, §13, §15

[7] = system: NIH3T3 cells overexpressing HNF1; assay: MTT cell viability, HNF1 overexpressing cells vs parental line; settings: HNF1 high-expressing cells / parental cell line, 3 to 4 days
Description: as §1, §2, §3, §4, §5, §6, §7, §8, §9, §10, §11, §12, §13, §14

[8] = system: NIH3T3 cells overexpressing caspase-2; assay: MTT cell viability, caspase-2 overexpressing cells vs parental line; settings: caspase-2 high-expressing cells / parental cell line, 3 to 4 days
Description: as §1, §2, §3, §4, §5, §6, §7, §8, §9, §10, §11, §12, §13, §15

[9] = system: NIH3T3 cells overexpressing CBP8; assay: MTT cell viability, CBP8 overexpressing cells vs parental line; settings: CBP8 high-expressing cells / parental cell line, 3 to 4 days
Description: as §1, §2, §3, §4, §5, §6, §7, §8, §9, §10, §11, §12, §13, §15

[10] = system: NIH3T3 cells overexpressing cystatin E; assay: MTT cell viability, cystatin E overexpressing cells vs parental line; settings: cystatin E high-expressing cells / parental cell line, 3 to 4 days
Description: as §1, §2, §3, §4, §5, §6, §7, §8, §9, §10, §11, §12, §13, §15

[11] = system: NIH3T3 cells overexpressing PKCalpha-KN; assay: MTT cell viability, PKCalpha-KN overexpressing cells vs parental line; settings: 3 to 4 days
Description: as §1, §2, §3, §4, §5, §6, §7, §8, §9, §10, §11, §12, §13, §14

[12] = system: NIH3T3 cells overexpressing cystatin alpha; assay: MTT cell viability, cystatin alpha overexpressing cells vs parental line; settings: cystatin alpha high-expressing cells / parental cell line, 3 to 4 days
Description: as §1, §2, §3, §4, §5, §6, §7, §8, §9, §10, §11, §12, §13, §15

[13] = system: NIH3T3 cells overexpressing Regucalcin; assay: MTT cell viability, Regucalcin overexpressing cells vs parental line; settings: Regucalcin high-expressing cells / parental cell line, 3 to 4 days
Description: as §1, §2, §3, §4, §5, §6, §7, §8, §9, §10, §11, §12, §13, §15

[14] = system: NIH3T3 cells overexpressing TK; assay: MTT cell viability, TK overexpressing cells vs parental line; settings: TK high-expressing cells / parental cell line, 3 to 4 days
Description: as §1, §2, §3, §4, §5, §6, §7, §8, §9, §10, §11, §12, §13, §15

[15] = system: NIH3T3 cells overexpressing Ki-ras; assay: MTT cell viability, Ki-ras overexpressing cells vs parental line; settings: Ki-ras high-expressing cells / parental cell line, 3 to 4 days
Description: as §1, §2, §3, §4, §5, §6, §7, §8, §9, §10, §11, §12, §13, §15

[16] = system: NIH3T3 cells overexpressing CaMKIIa; assay: MTT cell viability, CaMKIIa overexpressing cells vs parental line; settings: CaMKIIa high-expressing cells / parental cell line, 3 to 4 days
Description: as §1, §2, §3, §4, §5, §6, §7, §8, §9, §10, §11, §12, §13, §14

[17] = system: NIH3T3 cells overexpressing cAMP-PK-CS; assay: MTT cell viability, cAMP-PK-CS overexpressing cells vs parental line; settings: cAMP-PK-CS high-expressing cells / parental cell line, 3 to 4 days
Description: as §1, §2, §3, §4, §5, §6, §7, §8, §9, §10, §11, §12, §13, §14

[18] = system: NIH3T3 cells overexpressing PDGF-R; assay: MTT cell viability, PDGF-R overexpressing cells vs parental line; settings: PDGF-R high-expressing cells / parental cell line, 3 to 4 days
Description: as §1, §2, §3, §4, §5, §6, §7, §8, §9, §10, §11, §12, §13, §15

[19] = system: NIH3T3 cells overexpressing JNK-DN; assay: MTT cell viability, JNK-DN overexpressing cells vs parental line; settings: JNK-DN high-expressing cells / parental cell line, 3 to 4 days
Description: as §1, §2, §3, §4, §5, §6, §7, §8, §9, §10, §11, §12, §13, §15

[20] = system: NIH3T3 cells overexpressing caspase-1; assay: MTT cell viability, caspase-1 overexpressing cells vs parental line; settings: caspase-1 high-expressing cells / parental cell line, 3 to 4 days
Description: as §1, §2, §3, §4, §5, §6, §7, §8, §9, §10, §11, §12, §13, §14

[21] = PKCalpha-KN (first of two lines) high-expressing cells / parental cell line
[22] = PKCalpha-KN (second of two lines) high-expressing cells / parental cell line

SMILES	logarithmic value of ratio of IC40 values [1]	logarithmic value of ratio of IC40 values [2]	logarithmic value of ratio of IC40 values [3]	logarithmic value of ratio of IC40 values [4]	logarithmic value of ratio of IC40 values [5]	logarithmic value of ratio of IC40 values [6]	logarithmic value of ratio of IC40 values [7]	logarithmic value of ratio of IC40 values [8]	logarithmic value of ratio of IC40 values [9]	logarithmic value of ratio of IC40 values [10]	logarithmic value of ratio of IC40 values [11, 22]	logarithmic value of ratio of IC40 values [12]	logarithmic value of ratio of IC40 values [13]	logarithmic value of ratio of IC40 values [14]	logarithmic value of ratio of IC40 values [15]	logarithmic value of ratio of IC40 values [16]	logarithmic value of ratio of IC40 values [17]	logarithmic value of ratio of IC40 values [18]	logarithmic value of ratio of IC40 values [19]	logarithmic value of ratio of IC40 values [20]	also measured
Nc1nc2nc[nH]c2c(=S)[nH]1 [6-TG, 6-thioguanine]	0.29	−0.22	−0.25	0.20	0.00	0.69	0.46	0.18	0.38	0.00	0.38	0.60	0.20	−0.17	−0.30	0.00	0.14	0.22	0.00	–	logarithmic value of ratio of IC40 values [11, 21]: 0.26
O=CN/C=C/c1cc(O)ccc1O [Erbstatin, erbstatin]	0.00	−0.22	−0.2	0.04	−0.05	0.14	0.391	−0.07	0.14	−0.06	0.00	0.08	0.00	0.05	0.04	0.14	0.05	–	0.11	−0.22	–
CN(C)CCCn1cc(C2=C(c3c[nH]c4ccccc34)C(=O)NC2=O)c2ccccc21 [GF109203X]	0.35	–	–	0.41	−0.29	0.24	0.345	0.92	0.16	0.27	0.62	0.60	−0.05	0.00	−0.40	0.04	0.27	0.00	0.58	0.23	logarithmic value of ratio of IC40 values [11, 21]: 0.22
CN[C@@H]1C[C@H]2O[C@@](C)([C@@H]1OC)n1c3ccccc3c3c4c(c5c6ccccc6n2c5c31)C(=O)NC4 [Staurosporine]	–	0.24	0.04	–	−0.05	0.15	–	0.18	0.19	0.40	–	0.30	−0.09	0.46	0.38	0.12	−0.12	0.24	0.14	0.22	–
